In patent US20070275382A1, “Biomarkers for the Efficacy of Somatostatin Analogue Treatment” (priority 2003, published 2007):
*1 amine or outer side, *2 acyl side, *3 side chain or, on linkers, in order; H or OH if unused. Where a SMILES comes first, the peptide text is derived from it. Side-chain parts run from the residue outwards. [ ]: non-standard residue; d: D form. The star is where a group is joined. Ethylenediamine = C(CN[*:2])N[*:1]; Hyp = O=C(O)[CH]1C[CH](O)CN1; Phg = N[CH](C(=O)O)c1ccccc1; CO = O=C([*:1])[*:2]; Bn = c1ccc(C*)cc1

Tested on: Spleen
Test: Microarray gene expression profiling (HG-U95A), spleen
Format: in vivo, cynomolgus monkeys
Description: Origin of tissue and processing. Male and female cynomolgus monkeys received subcutaneously pasireotide (100 μg/animal/day) or the vehicle for 14 days. On day 15, all animals were sacrificed and tissues for RNA extraction were immediately snap-frozen and kept at −80° C. until processing.
RNA expression profiling was conducted by means of the HG-U95A gene expression probe array (Affymetrix; Santa Clara, Calif. USA), containing more than 12,600 probe sets interrogating primarily full-length human genes and also some control probe sets. The experiment was conducted according to the recommendations of the manufacturer. Briefly, total RNA was obtained by acid guanidinium thiocyanate-phenol-chloroform extraction (Trizol®, Invitrogen Life Technologies, San Diego, Calif. USA) from each frozen tissue section. The total RNA was then purified on an affinity resin (Rneasy®, Qiagen) and quantified. Double stranded cDNA was synthesized with a starting amount of approximately 5 μg full-length total RNA using the Superscript® Choice System (Invitrogen Life Technologies, Carlsbad, Calif. USA) in the presence of a T7-(dT)24 DNA oligonucleotide primer. Following synthesis, the cDNA was purified by phenol/chloroform/isoamyl alcohol extraction and ethanol precipitation. The purified cDNA was then transcribed in vitro using the BioArray® High Yield RNA Transcript Labeling Kit (ENZO, Farmingdale, N.Y. USA) in the presence of biotinylated ribonucleotides form biotin labelled cRNA. The labelled cRNA was then purified on an affinity resin (Rneasy®, Qiagen), quantified and fragmented. An amount of approximately 10 μg labelled cRNA was hybridized for 16 hours at 45° C. to an expression probe array. The array was then washed and stained twice with streptavidin-phycoerythrin (Molecular Probes,) using the GeneChip® Fluidics Workstation 400 (Affymetrix, Santa Clara, Calif. USA). The array was then scanned twice using a confocal laser scanner (GeneArray® Scanner, Agilent, Palo Alto, Calif. USA) resulting in one scanned image. This resulting “.dat-file” was processed using the MAS4 program (Affymetrix) into a “.cel-file”. The “.cel file” was captured and loaded into the Affymetrix GeneChip® Laboratory Information Management System (LIMS). The LIMS database is connected to a UNIX Sun Solaris server through a network filing system that allows for the average intensities for all probes cells (CEL file) to be downloaded into an Oracle database (NPGN). Raw data was converted to expression levels using a “target intensity” of 150. The data were evaluated for quality control and loaded in the GeneSpring® software 4.2.4 (Silicon Genetics, Calif. USA) for analysis.
On the human Affymetrix HGU95Av2 chip, probe sets for individual genes contain 20 oligonucleotide pairs, each composed of a “perfect match” 25-mer and a “mismatch” 25-mer differing from the “perfect” match oligonucleotide at a single base. After probe labelling, hybridization, and laser scanning, the expression level was estimated by averaging the differences in signal intensity measured by oligonucleotide pairs of a given probe (AvgDiff value). The fold changes and directions were calculated for selected genes, from the differences of the AvgDiff values between controls and treated.
To identify genes that were impacted by pasireotide, the dataset was initially filtered to exclude in a first wave of analysis, genes whose values were systematically in the lower expression ranges where the experimental noise is high (at least 80 in a number of experiments corresponding to the smallest number of replicas of any experimental point). In a second round of selection a threshold p-value of 0.05 (based on a t-test) identified differences between treated and control based on a two component error model (Global Error Model) and, whenever possible, with a stepdown correction for multi-hypothesis testing (Benjamini and Hochberg false discovery rate). […]

[1] = ↑ increase, treated vs controls
[2] = ↓ decrease, treated vs controls

NCCCCC1NC(=O)C(Cc2c[nH]c3ccccc23)NC(=O)C(c2ccccc2)NC(=O)C2CC(OC(=O)NCCN)CN2C(=O)C(Cc2ccccc2)NC(=O)C(Cc2ccc(OCc3ccccc3)cc2)NC1=O (stereo not drawn) [Pasireotide, cyclo[4-(NH2—C2H4—NH—CO—O)Pro-Phg-DTrp-Lys-Tyr(4-Bzl)-Phe]] (cyclo(F[Hyp]([CO-Ethylenediamine])[Phg]WKY(Bn)); configuration not given here)
IGF-1 expression level, AvgDiff (range) (0.1 mg/animal/14day): 85 (52 to 125) | IGFBP6 expression level, AvgDiff (range) (0.1 mg/animal/14day): 1,043 (853 to 1,155) | SSTR2 expression level, AvgDiff (range) (0.1 mg/animal/14day): 93 (87 to 95) | ATPase, Na+/K+ transporting, β 1 polypeptide RNA expression fold change [1]: polypeptide ↑ x2.5 | Arginine vasopressin receptor 1B RNA expression fold change [1]: receptor 1B ↑ x2 | Bcl-2 binding component 3 RNA expression fold change [1]: ↑ x2.5 | Ca++ channel, voltage-dependent, α 2/δ subunit 1 RNA expression fold change [1]: subunit 1 ↑ x2 | Ca++ channel, voltage-dependent, α 2/δ subunit 2 RNA expression fold change [1]: ↑ x1.5 | Calcium/calmodulin-dependent protein kinase (CaM kinase) II β RNA expression fold change [1]: II β ↑ x2 | Calmodulin 1 (phosphorylase kinase, δ) RNA expression fold change [1]: kinase, δ) ↑ x2 | Calmodulin 2 (phosphorylase kinase, δ) RNA expression fold change [1]: kinase, δ) ↑ x1.5 | Caspase 8, apoptosis-related cysteine protease RNA expression fold change [1]: ↑ x2.5 | Cdk 2 RNA expression fold change [1]: Cdk 2 ↑ x1.5 | Cdk 5, regulatory subunit 1 (p35) RNA expression fold change [1]: ↑ x2 | Cdk 6 RNA expression fold change [1]: Cdk 6 ↑ x3 | Cyclin D2 RNA expression fold change [1]: Cyclin D2 ↑ x1.5 | Death-associated protein RNA expression fold change [1]: ↑ x1.5 | Follistatin-like 1 RNA expression fold change [1]: ↑ x1.5 | Gastric inhibitory polypeptide receptor RNA expression fold change [1]: receptor ↑ x2 | HGF activator inhibitor precursor RNA expression fold change [1]: ↑ x1.5 | IFN regulatory factor 2 RNA expression fold change [1]: factor 2 ↑ x3.5 | IFN-inducible RNA-dependent protein kinase RNA expression fold change [1]: ↑ x2.5 | IFNγ receptor 2 (IFNγ transducer 1) RNA expression fold change [1]: ↑ x1.5 | IFNγ responsive transcript RNA expression fold change [1]: ↑ x2 | IGF-1 RNA expression fold change [1]: IGF-1 ↑ x1.5 | IGFBP6 RNA expression fold change [1]: IGFBP6 ↑ x2.5 | IL 1 receptor-like 1 RNA expression fold change [1]: ↑ x2 | IL-8 receptor type B RNA expression fold change [1]: ↑ x1.5 | IP-4-phosphatase, type 1, isoform b RNA expression fold change [1]: ↑ x2 | K+ large conductance Ca++-activated channel, subfamily M, β member 1 RNA expression fold change [1]: ↑ x2.5 | LTb4 (chemokine receptor-like 1) RNA expression fold change [1]: receptor-like 1) ↑ x3 | PDGF, α polypeptide RNA expression fold change [1]: polypeptide ↑ x2.5 | PDGFR, α polypeptide RNA expression fold change [1]: polypeptide ↑ x1.5 | PI-3-kinase, class 2, β polypeptide RNA expression fold change [1]: ↑ x1.5 | PI-3-kinase, class 3 RNA expression fold change [1]: class 3 ↑ x2 | PKC, α binding protein RNA expression fold change [1]: protein ↑ x2 | PLA2 RNA expression fold change [1]: PLA2 ↑ x2 | Phosphatidylinositol glycan, class B RNA expression fold change [1]: ↑ x1.5 | Programmed cell death 10 RNA expression fold change [1]: death 10 ↑ x1.5 | Putative chemokine receptor; GTP-binding protein RNA expression fold change [1]: binding protein ↑ x2.5 | Rb binding protein RNA expression fold change [1]: protein ↑ x2 | Rb-binding protein 8 RNA expression fold change [1]: protein 8 ↑ x1.5 | S-phase kinase-associated protein 1A (p19A) RNA expression fold change [1]: 1A (p19A) ↑ x2 | SSTR2 RNA expression fold change [1]: SSTR2 ↑ x2 | Solute carrier family 9 (Na+/H+ exchanger) isoform 3 regulatory factor 1 RNA expression fold change [1]: ↑ x10.5 | TGF induced protein RNA expression fold change [1]: protein ↑ x1.5 | TNF (cachectin) RNA expression fold change [1]: ↑ x2 | TNFR superfamily, member 12 RNA expression fold change [1]: member 12 ↑ x1.5 | Tumour protein p53-binding protein RNA expression fold change [1]: protein ↑ x1.5 | VEGF RNA expression fold change [1]: VEGF ↑ x1.5 | Vasodilatator-stimulated phosphoprotein RNA expression fold change [1]: phosphoprotein ↑ x2 | β adrenergic receptor kinase 1 RNA expression fold change [1]: kinase 1 ↑ x3 | S-phase kinase-associated protein 1A RNA expression fold change (↑ increase, treated vs controls, second listing, without (p19A)): 1A ↑ x2 | Adrenergic, α-2C-, receptor RNA expression fold change [2]: ↓ x2 | Cyclin I RNA expression fold change [2]: Cyclin I ↓ x1.5 | Dopamine receptor D4 RNA expression fold change [2]: receptor D4 ↓ x2 | EGF (β-urogastrone) RNA expression fold change [2]: urogastrone) ↓ x2 | K+ voltage-gated channel, shaker-related subfamily, member 3 RNA expression fold change [2]: member 3 ↓ x3 | Nuclear factor of activated T-cells, cytoplasmic, calcineurin-dependent 1 RNA expression fold change [2]: dependent 1 ↓ x5 | PI-3-kinase, catalytic, α polypeptide RNA expression fold change [2]: polypeptide ↓ x2.5 | PTHR 1 RNA expression fold change [2]: PTHR 1 ↓ x2.5 | TGFβ receptor III (betaglycan, 300 kD) RNA expression fold change [2]: 300 kD) ↓ x1.5
